Measurements from patent US12350403B2, “Methods of making therapeutic polymeric material” (priority 2015, dated 2025).
≈ marks a conversion by molar mass, not a printed value.

How the values were obtained:
[1] = cited from earlier work
Xen 29 [2] = experiment: Minimum inhibitory concentration against Xen 29; assay type: cell-based, S. aureus; conditions: Staphylococcus aureus, 29, read-out: Minimum inhibitory concentration of rifampin against Xen 29
[3] = value used for minimum release rate; cited from earlier work
[4] = UV-Vis spectra of vancomycin eluted from unirradiated and irradiated blend; assay type: physicochemical; conditions: blended in the polymeric material, with and without terminal irradiation
Method: Vancomycin HCl-blended UHMWPE was prepared with a concentration of 6 wt % vancomycin as described in Example 3. Consolidation was performed at 170° C. for 10 min at 20 MPa. The platens were then cooled down with air down to approximately 162° C. and then cooled down with water starting at approximately 156° C. down to about room temperature to obtain an approximately 3 mm-thick puck (approximately 10.5 mm diameter). Consolidated vancomycin-blended samples (VPE) were then either used as is or gamma irradiated at 100 kGy. UHMWPE without additives was used as control. In vitro elution of samples in all three groups was conducted in phosphate buffered saline (PBS) as described in Example 3. After no detectable vancomycin could be measured through UV-Vis, the presence of vancomycin grafted onto the surface of the polymer was determined by labeling with an anti-vancomycin antibody.

[5] = human hip, assumed; cited from earlier work
Xen 29 [6] = conditions: cited from earlier work

| SMILES | share of intravenous antibiotic that penetrates bone [1] | MIC (Xen 29 [2]) [µg/mL] | minimum inhibitory concentration [3] [µg/mL] | effect of irradiation on vancomycin (UV absorbance of eluted vancomycin) [4] | approximate clearance half-life from the joint space [5] [h] | Minimum inhibitory concentration of vancomycin against Xen 29 (Xen 29 [6]) [µg/mL] |
| --- | --- | --- | --- | --- | --- | --- |
| Cc1nnc(SCC2=C(C(=O)O)N3C(=O)[C@@H](NC(=O)Cn4cnnn4)[C@H]3SC2)s1 [cefazolin] | 7-15% |  |  |  |  |  |
| CO/N=C(\C(=O)N[C@@H]1C(=O)N2C(C(=O)O)=C(CSc3nc(=O)c(=O)[nH]n3C)CS[C@H]12)c1csc(N)n1 [ceftriaxone] | 5-19% |  |  |  |  |  |
| CO[C@H]1/C=C/O[C@@]2(C)Oc3c(C)c(O)c4c(O)c(c(/C=N/N5CCN(C)CC5)c(O)c4c3C2=O)NC(=O)/C(C)=C\C=C\[C@H](C)[C@H](O)[C@@H](C)[C@@H](O)[C@@H](C)[C@H](OC(C)=O)[C@@H]1C [rifampin] |  | 0.01 (≈ 0.0122 µM) | 1 (≈ 1.22 µM) |  |  |  |
| CN[C@H](CC(C)C)C(=O)N[C@H]1C(=O)N[C@@H](CC(N)=O)C(=O)N[C@H]2C(=O)N[C@H]3C(=O)N[C@H](C(=O)N[C@H](C(=O)O)c4cc(O)cc(O)c4-c4cc3ccc4O)[C@H](O)c3ccc(c(Cl)c3)Oc3cc2cc(c3O[C@@H]2O[C@H](CO)[C@@H](O)[C@H](O)[C@H]2O[C@H]2C[C@](C)(N)[C@H](O)[C@H](C)O2)Oc2ccc(cc2Cl)[C@H]1O [vancomycin] | 5-20% |  | 2 (≈ 1.38 µM) | not affected by irradiation | ~3.5 | 1 |
